Our source for the EC50 values is ChEMBL document CHEMBL3352677, “Thiazolidine-2,4-diones as multi-targeted scaffold in medicinal chemistry: Potential anticancer agents” (2014).

Structures are written as SMILES. In brackets after ≈: the same amount, converted by molar mass.

For the assay, the system named is Artemia. Nature of the assay: Cytotoxicity in brine shrimps larvae assessed as mortality after 24 hrs. The class given is functional. The following applies: read-out: ED50 (the source's name).
Take `O=C1NC(=O)/C(=C/c2ccc(/C=C/C(=O)c3cccc(F)c3)cc2)S1`: the EC50 is 4 µg/mL (≈ 11.3 µM). The figure for `O=C1NC(=O)/C(=C/c2ccc(/C=C/C(=O)c3ccc(F)cc3)cc2)S1` is 4 µg/mL (≈ 11.3 µM); for `O=C1NC(=O)/C(=C/c2ccc(/C=C/C(=O)c3cccs3)cc2)S1` it is 4 µg/mL (≈ 11.7 µM); for `COc1cc([C@@H]2c3cc4c(cc3[C@H](O)[C@H]3COC(=O)[C@H]23)OCO4)cc(OC)c1OC` [PODOFILOX] it is 3.61 µg/mL (≈ 8.71 µM).
